pIC50, pKd: −log10 of the molar value. Active and inactive are the calls of the source. The calls are words filed in the database; no cut-off is given here.
Tests used:
Quadruplex DNA [1] = assay: Stabilization of c-Myc G-quadruplex DNA (unknown origin) assessed as change in melting temperature at 8.5 uM incubated for 5 mins by UV-visible thermal denaturation study; format: nucleic-acid assay
PC-3 [2] = assay: Induction of cell cycle arrest in human PC3 cells assessed as accumulation at Sub G1 phase at 55 uM after 48 hrs by propidium iodide staining based flow cytometry (reference value: 0.1%); format: functional
PC-3 [3] = assay: Induction of cell cycle arrest in human PC3 cells assessed as accumulation at Sub G1 phase at 50 uM after 48 hrs by propidium iodide staining based flow cytometry (reference value: 0.1%); format: functional
PC-3 [4] = assay: Induction of apoptosis in human PC-3 cells assessed as late apoptic cells at 50 uM after 48 hrs by Annexin V based flow cytometric analysis (reference value: 9.24%); format: functional
Quadruplex DNA [5] = assay: Binding affinity to c-Myc G-quadruplex DNA (unknown origin) assessed as hyperchromicity at 8.5 uM incubated for 5 mins by UV- vis spectrophotometric analysis; format: nucleic-acid assay
PC-3 [6] = assay: Induction of apoptosis in human PC-3 cells assessed as viable cells at 50 uM after 48 hrs by Annexin V based flow cytometric analysis (reference value: 89.57%); format: functional; conditions: read-out: Activity
Quadruplex DNA [7] = assay: Binding affinity to Tel Q G-quadruplex DNA (unknown origin) assessed as increase in viscosity at 15 uM by EtBr/Hoechst 33342 method; format: nucleic-acid assay
PC-3 [8] = assay: Induction of cell cycle arrest in human PC3 cells assessed as accumulation at S phase at 55 uM after 48 hrs by propidium iodide staining based flow cytometry (reference value: 1.8%); format: functional
[9] = Induction of apoptosis in CHO-K1 cells assessed as viable cells at 60 uM after 48 hrs by Annexin V based flow cytometric analysis (reference value: 93.71%); format: cell-based, Cricetulus griseus; conditions: chinese hamster, read-out: Activity
Quadruplex DNA [10] = assay: Binding affinity to Tel Q G-quadruplex DNA (unknown origin) assessed as hypsochromic shift at 8.5 uM incubated for 5 mins by UV- vis spectrophotometric analysis; format: nucleic-acid assay
CHO-K1 [11] = assay: Induction of apoptosis in CHO-K1 cells assessed as early apoptic cells at 60 uM after 48 hrs by Annexin V based flow cytometric analysis (reference value: 4.58%); format: cell-based, Cricetulus griseus; conditions: chinese hamster, cho-k1, 48 h
CHO-K1 [12] = assay: Cytotoxicity against […] cells assessed as reduction in cell viability measured after 72 hrs by MTT assay; format: cell-based; conditions: Cricetulus griseus, CHO-K1, 72 h
Quadruplex DNA [13] = assay: Binding affinity to Tel Q G-quadruplex DNA (unknown origin) assessed as increase in intensity of positive and negative peaks at 10 to 40 uM by circular dichroism spectra; format: nucleic-acid assay; conditions: dose 10-40 µM
PC-3 [14] = assay: Induction of apoptosis in human PC-3 cells assessed as apoptotic cells at 55 uM incubated for 48 hrs by AnnexinV based flow cytometric analysis (reference value: 10.43%); format: functional
Quadruplex DNA [15] = assay: Stabilization of Tel Q G-quadruplex DNA (unknown origin) assessed as increase in life time of DNA and compound complex at 8.5 uM incubated for 5 mins by fluorescence lifetime study; format: nucleic-acid assay
CHO-K1 [16] = assay: Induction of apoptosis in CHO-K1 cells assessed as necrotic cells at 65 uM after 48 hrs by Annexin V based flow cytometric analysis (reference value: 0.70%); format: cell-based, Cricetulus griseus; conditions: chinese hamster, cho-k1, 48 h
PC-3 [17] = assay: Induction of cell cycle arrest in human PC3 cells assessed as accumulation at G1 phase at 55 uM after 48 hrs by propidium iodide staining based flow cytometry (reference value: 5%); format: functional
dsDNA [18] = assay: Binding affinity to double strand DNA (unknown origin) assessed as increase in intensity of positive and negative peaks at 10 to 40 uM by circular dichroism spectra; format: nucleic-acid assay; conditions: dose 10-40 µM
Quadruplex DNA [19] = assay: Binding affinity to c-Myc G-quadruplex DNA (unknown origin) assessed as hypsochromic shift at 8.5 uM incubated for 5 mins by UV- vis spectrophotometric analysis; format: nucleic-acid assay
dsDNA [20] = assay: Binding affinity to double strand DNA (unknown origin) assessed as hypsochromic shift at 8.5 uM incubated for 5 mins by UV- vis spectrophotometric analysis; format: nucleic-acid assay
PC-3 [21] = assay: Induction of apoptosis in human PC-3 cells assessed as viable cells at 55 uM after 48 hrs by Annexin V based flow cytometric analysis (reference value: 89.57%); format: functional; conditions: read-out: Activity
PC-3 [22] = assay: Induction of cell cycle arrest in human PC3 cells assessed as accumulation at G1 phase at 50 uM after 48 hrs by propidium iodide staining based flow cytometry (reference value: 5%); format: functional
Quadruplex DNA [23] = assay: Binding affinity to c-Myc G-quadruplex DNA (unknown origin) assessed as increase in intensity of positive and negative peaks at 10 to 40 uM by circular dichroism spectra; format: nucleic-acid assay; conditions: dose 10-40 µM
dsDNA [24] = assay: Stabilization of double strand DNA (unknown origin) assessed as increase in life time of DNA and compound complex at 8.5 uM incubated for 5 mins by fluorescence lifetime study; format: nucleic-acid assay
CHO-K1 [25] = assay: Induction of apoptosis in CHO-K1 cells assessed as apoptic cells at 65 uM after 48 hrs by Annexin V based flow cytometric analysis (reference value: 6.29%); format: cell-based, Cricetulus griseus; conditions: chinese hamster, cho-k1, 48 h
PC-3 [26] = assay: Induction of apoptosis in human PC-3 cells assessed as necrotic cells at 50 uM after 48 hrs by Annexin V based flow cytometric analysis (reference value: 0.79%); format: functional
Quadruplex DNA [27] = assay: Binding affinity to c-Myc G-quadruplex DNA (unknown origin) assessed as increase in viscosity at 15 uM by EtBr/Hoechst 33342 method; format: nucleic-acid assay
PC-3 [28] = assay: Induction of apoptosis in human PC-3 cells assessed as late apoptic cells at 55 uM after 48 hrs by Annexin V based flow cytometric analysis (reference value: 9.24%); format: functional
dsDNA [29] = assay: Stabilization of dsDNA (unknown origin) assessed as change in melting temperature at 8.5 uM incubated for 5 mins by UV-visible thermal denaturation study; format: nucleic-acid assay
PC-3 [30] = assay: Induction of cell cycle arrest in human PC3 cells assessed as accumulation at S phase at 50 uM after 48 hrs by propidium iodide staining based flow cytometry (reference value: 1.8%); format: functional
PC-3 [31] = assay: Cytotoxicity against human PC3 cells assessed as reduction in cell viability measured after 72 hrs by MTT assay; format: functional, cell-based; conditions: PC-3, 72 h
Quadruplex DNA [32] = assay: Binding affinity to Tel Q G-quadruplex DNA (unknown origin) assessed as dissociation constant incubated for 5 mins by UV- vis spectrophotometric analysis; format: nucleic-acid assay
dsDNA [33] = assay: Binding affinity to double strand DNA (unknown origin) assessed as hyperchromicity at 8.5 uM incubated for 5 mins by UV- vis spectrophotometric analysis; format: nucleic-acid assay
CHO-K1 [34] = assay: Induction of apoptosis in CHO-K1 cells assessed as early apoptic cells at 65 uM after 48 hrs by Annexin V based flow cytometric analysis (reference value: 4.58%); format: cell-based, Cricetulus griseus; conditions: chinese hamster, cho-k1, 48 h
dsDNA [35] = assay: Binding affinity to double strand DNA (unknown origin) assessed as increase in viscosity at 15 uM by EtBr/Hoechst 33342 method; format: nucleic-acid assay
Quadruplex DNA [36] = assay: Binding affinity to Tel Q G-quadruplex DNA (unknown origin) assessed as hyperchromicity at 8.5 uM incubated for 5 mins by UV- vis spectrophotometric analysis; format: nucleic-acid assay
CHO-K1 [37] = assay: Induction of apoptosis in CHO-K1 cells assessed as apoptic cells at 60 uM after 48 hrs by Annexin V based flow cytometric analysis (reference value: 6.29%); format: cell-based, Cricetulus griseus; conditions: chinese hamster, cho-k1, 48 h

Question: Which results are given for `O=C(Cn1cc(CSc2nc3cc(OC(F)F)ccc3[nH]2)nn1)NC1CCCCC1`?
Answer: ΔTm (Quadruplex DNA [1]): 5 °C; Activity (PC-3 [2]): 0.8%; Activity (PC-3 [3]): 0.1%; Activity (PC-3 [4]): 9.39%; Activity (Quadruplex DNA [5]): 27.3%; viability at 50 µM (PC-3 [6]): 87.3%; Activity (Quadruplex DNA [7]): Active; Activity (PC-3 [8]): 7.9%; viability at 48 h, 60 µM [9]: 86%; Activity (Quadruplex DNA [10]): 2.5 nm; Activity (CHO-K1 [11]): 10.39%; pIC50 (CHO-K1 [12]): 4.20; Activity (Quadruplex DNA [13]): Active; Activity (PC-3 [14]): 18.62%; Activity (Quadruplex DNA [15]): Active; Activity (CHO-K1 [16]): 1.72%; Activity (PC-3 [17]): 18.2%; Activity (dsDNA [18]): inactive; Activity (Quadruplex DNA [19]): 5 nm; Activity (dsDNA [20]): 5.6 nm; viability at 55 µM (PC-3 [21]): 81.4%; Activity (PC-3 [22]): 8.9%; Activity (Quadruplex DNA [23]): Active; Activity (dsDNA [24]): Active; Activity (CHO-K1 [25]): 15.63%; Activity (PC-3 [26]): 2.57%; Activity (Quadruplex DNA [27]): Active; Activity (PC-3 [28]): 13.75%; ΔTm (dsDNA [29]): 0 °C; Activity (PC-3 [30]): 5.3%; pIC50 (PC-3 [31]): 4.27; pKd (Quadruplex DNA [32]): 4.14; Activity (dsDNA [33]): 13.1%; Activity (CHO-K1 [34]): 11.75%; Activity (dsDNA [35]): inactive; Activity (Quadruplex DNA [36]): 37.1%; Activity (CHO-K1 [37]): 13.98%

— ChEMBL document CHEMBL4732026, “Benzimidazole-1,2,3-triazole hybrid molecules: synthesis and study of their interaction with G-quadruplex DNA” (RSC Med Chem, 2021)
